Patent publication US20100074968A1, “AGENT AND METHOD FOR TREATING CANCER COMPRISING STRONTIUM, AMINO ACID(S) AND MINERAL AGENT(S)” (HELSINGFORS INSTITUTION FÖR BIOMMUNTERAPI AB., priority 2003, published 2010)

Assays:
[1] = Effect of strontium intake on serum hormone levels in healthy individual(s); type: in vivo, human
Experimental: When healthy individuals were given 7 mg strontium chloride per day, the PRL level increased within two weeks 50-80% from a normal base value. […]
The effect of strontium intake on selected physiological reactions was evaluated by administering strontium alone or together with the full dietary support program described in table 1 to four prostate cancer patients, P1-P4, and to one healthy individual. The results are shown in table 4, which also gives the normal values for the measured hormones.

[2] = test system: prostate cancer (CaP); assay: Strontium alone or with full dietary support program in prostate cancer patients: hormone/PSA levels and clinical course; type: in vivo, human
Experimental: In addition to the dietary biomodulating components prescribed (see Table 1), the patient ingested a daily amount of 7 mg of strontium oxide, contained in birch ash that they prepared at home and was taking continuously at a dose of about 8 g per day.
• 1. Oral administration of each (2-5 g/day) of respective L-amino acids: Arg, Asp, Glu, Gly, Lys and Ser in connection with meals. The amino acids are manufactured by Degussa Ag, Germany. • 2. […] Small physiologic amounts of vitamins: A, B, C, D, E, K, folic acid and lycopene. • 4. To improve lymphopoiesis and the immune defense of patients a diet containing prionfree neurogenic lipids (equivalent to approx. 50 g of brain) was recommended, (purchased and canned by Neurofood Ltd. Finland). • 5. All these dietary ingredients can be mixed together in yoghurt, forming a daily ration, using pre-packed pulvers. • 6. Dose-levels are adjusted based on clinical response as measured, and correlated to the patient's body weight.
The effect of strontium intake on selected physiological reactions was evaluated by administering strontium alone or together with the full dietary support program described in table 1 to four prostate cancer patients, P1-P4, and to one healthy individual.

[3] = long-lasting use for diagnostic purposes, i.v. dose up to 80 mg SrCl2; cited from earlier work
[4] = P0 without Sr for three weeks (after the Sr course)
[5] = healthy individual P0, after Sr 7 mg, 14 days
[6] = healthy individuals, 7 mg strontium chloride per day, two weeks
[7] = healthy persons, ingestion of strontium (in mg's)
[8] = patients diagnosed with prostate cancer, administration of strontium
[9] = laboratory pattern, orchiectomized patient P1 (No. 1), 7 mg strontium oxide daily plus dietary biomodulating components
[10] = patient P1, year 2003, 7 mg strontium oxide daily (birch ash) plus dietary biomodulating components

Work on `[Cl-].[Cl-].[Sr+2]` [strontium chloride] yielded a DHEAS [1, 4] of 2.7 µmol/L, an FSH [1, 4] of 11 IU/L and a PRL [1, 4] of 337 mU/L. The PSA [1, 4] was 0.4 µg/L, the “serum DHEA” value [1, 4] was 3.6 nmol/L and the DHEAS [1, 5] was 2.3 µmol/L. It also gave an FSH [1, 5] of 13 IU/L, a PRL [1, 5] of 389 mU/L and a PSA [1, 5] of 0.4 µg/L. For the same molecule, the “serum DHEA” value [1, 5] was 9.8 nmol/L, the FSH level ([1]; healthy individuals, 7 mg strontium chloride per day) was “can increase or remain on a level exceeding normal levels” and the “serum DHEA level” value [1, 6] was “can show an increase in value”. The “serum DHEAS level” value [1, 6] was “decreased”, the “serum prolactin (PRL) level increase” value ([1]; healthy individuals, 7 mg strontium chloride per day, within two weeks, from normal base value) was 50-80% and the PRL increase [1, 7] was greater than 50%. For the same molecule, the “decrease in DHEAS” value [1, 7] was roughly 40%, the DHEAS level [2, 8] was “decrease” and the FSH level [2, 8] was “increases”. The PSA level [2, 8] was “decrease”, the DHEAS ([2]; prostate cancer patient P2) was less than 0.8 µmol/L and the PRL ([2]; prostate cancer patient P2) was 852 mU/L. The PSA ([2]; prostate cancer patient P2) was 12.6 µg/L, the DHEAS ([2]; prostate cancer patient P3 ±) was 2.5 µmol/L and the FSH ([2]; prostate cancer patient P3 ±) was 12 IU/L. For the same molecule, the PRL ([2]; prostate cancer patient P3 ±) was 568 mU/L, the PSA ([2]; prostate cancer patient P3 ±) was 12.7 µg/L and the “serum DHEA” value ([2]; prostate cancer patient P3 ±) was 4.3 nmol/L. It also gave a DHEAS ([2]; prostate cancer patient P4 ±) of less than 0.8 µmol/L, an FSH ([2]; prostate cancer patient P4 ±) of 13 IU/L and a PRL ([2]; prostate cancer patient P4 ±) of 1879 mU/L. For the same molecule, the PSA ([2]; prostate cancer patient P4 ±) was 24.0 µg/L, the “serum DHEA” value ([2]; prostate cancer patient P4 ±) was 2.4 nmol/L and the harmful side effects [3] was “No harmful therapeutic side effects”.
In the case of `[O-2].[Sr+2]` [strontium oxide], the Activin [2, 9] is reported as 330 to 500 pg/mL, the DHEA [2, 9] is reported as less than 2.0 nmol/L and the DHEAS [2, 9] is reported as less than 0.8 µmol/L. The Inhibin [2, 9] was less than 7.8 pg/mL, the PRL [2, 9] was 15-95 mU/L and the PSA [2, 9] was less than 0.1 µg/L. For the same molecule, the SHBG [2, 9] was 58 to 61 nmol/L, the Testost [2, 9] was 1.0 nmol/L and the “time until bone-metastases disappeared” value ([2]; patient P1, multiple bone-metastases) was “four”. For the same molecule, the “time until bone-pain subsided” value ([2]; patient P1, multiple bone-metastases, from beginning of treatment) was 6 months, the DHEA value [2, 10] was “below 2.0” and the FSH level [2, 10] was “about 48 IU/l”. For the same molecule, the “prolactin (PRL) value” [2, 10] was “about 97 mU/l”, the “serum DHEAS level” value ([2]; patient P1, year 2003, 7 mg strontium oxide daily (birch ash) plus dietary biomodulating components, below detectable limit) was less than 0.8 and the clinical condition ([2]; patient P1, year 2003, treatment since 1990) was “excellent clinical condition”.
